Assay results reported in patent publication US20260217708A1, “FUSED BENZAZEPINE DERIVATIVES FOR USE IN THE TREATMENT OF CANCER AND EPILEPSY” (UCB BIOPHARMA SRL, priority 2023, published 2026).

Assays:
[1] = biological target: T1, system Xc^− (Homo sapiens, UniProt Q9UPY5); test: Cystine-induced glutamate release assay; type: cell-based; parameters: endogenous in cells; host or cells: H4 cells; settings: H4 cells, sodium-free HEPES buffer, 50 μM L-Cystine, 2 hours, Amplex Red glutamate readout; read-out: pIC50 Cystine-induced glutamate release assay (converted)
T1 sequence (Q9UPY5 1-501): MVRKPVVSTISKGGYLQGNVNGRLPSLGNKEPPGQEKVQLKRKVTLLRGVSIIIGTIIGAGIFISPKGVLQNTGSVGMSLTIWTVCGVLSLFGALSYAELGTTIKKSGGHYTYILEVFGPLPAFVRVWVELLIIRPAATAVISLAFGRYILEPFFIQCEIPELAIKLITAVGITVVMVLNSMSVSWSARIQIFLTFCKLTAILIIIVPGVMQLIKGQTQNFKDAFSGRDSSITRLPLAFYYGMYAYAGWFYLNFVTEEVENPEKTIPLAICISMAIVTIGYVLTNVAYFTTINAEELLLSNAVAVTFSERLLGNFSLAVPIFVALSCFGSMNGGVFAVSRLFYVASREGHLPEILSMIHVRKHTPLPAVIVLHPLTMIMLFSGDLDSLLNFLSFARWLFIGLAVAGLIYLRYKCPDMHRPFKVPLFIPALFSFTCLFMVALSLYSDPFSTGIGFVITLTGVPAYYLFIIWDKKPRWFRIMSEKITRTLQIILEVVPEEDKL
T1 sequence (P08195 1-529 partner): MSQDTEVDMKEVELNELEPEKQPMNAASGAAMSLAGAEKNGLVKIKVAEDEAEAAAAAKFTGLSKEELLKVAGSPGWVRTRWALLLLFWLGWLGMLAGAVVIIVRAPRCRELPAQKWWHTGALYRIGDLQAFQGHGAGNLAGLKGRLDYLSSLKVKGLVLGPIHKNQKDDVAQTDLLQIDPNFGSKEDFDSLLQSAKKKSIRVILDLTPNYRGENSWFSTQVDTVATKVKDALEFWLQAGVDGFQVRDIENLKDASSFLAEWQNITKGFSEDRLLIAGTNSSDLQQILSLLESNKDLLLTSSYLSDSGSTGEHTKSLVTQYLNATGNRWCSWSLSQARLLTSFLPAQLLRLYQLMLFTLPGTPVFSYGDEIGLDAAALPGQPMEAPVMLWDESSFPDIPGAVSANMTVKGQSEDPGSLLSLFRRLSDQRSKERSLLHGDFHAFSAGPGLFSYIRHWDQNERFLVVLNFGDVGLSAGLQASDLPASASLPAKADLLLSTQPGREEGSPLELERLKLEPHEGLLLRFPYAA
In short: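 H4 cells in sodium-free HEPES buffer (pH 7.4), 2 days after plating; glutamate release induced with 50 μM L-cystine plus compound (1% DMSO), 2 h at 37 °C. Supernatant glutamate measured by Amplex Red fluorescence; IC50/pIC50 derived between 1% DMSO and 50 μM erastin controls.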

[2] = biological target: T1, system Xc^−; test: [^14C]L-Cystine uptake assay; type: cell-based; parameters: endogenous in cells; host or cells: H4 cells; settings: H4 cells, sodium-free HEPES buffer, 0.5 μM L-[14C]Cystine and 4.5 μM L-Cystine, 1 hour at 37° C.; read-out: pIC50 [^14C] L-Cystine uptake assay (converted)
In short: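 H4 cells at 5×10^4 cells/well in sodium-free HEPES buffer were preincubated 15 min with compounds (1% DMSO). Uptake of 0.5 μM [14C]L-cystine plus 4.5 μM unlabelled L-cystine ran 1 hour at 37° C on scintillating plates. IC50 was set between 1% DMSO and 50 μM Erastin controls and expressed as pIC50.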

IC50 [1] [nM] | IC50 [2] [nM] | Compound
39.8 to 100 | 39.8 to 100 | Cc1cc2c(c(F)n1)-c1cccnc1C(C)C(=O)N2CC(=O)Nc1ccc(F)c(F)c1 (stereo not drawn) [#130, N-(3,4-difluorophenyl)-2-(3-fluoro-5,10-dimethyl-9-oxo-4,8,12-triazatricyclo[9.4.0.0^2,7]pentadeca-1(11),2(7),3,5,12,14-hexaen-8-yl)acetamide]
39.8 to 100 | 15.8 to 39.8 | COc1ccc(NC(=O)CN2C(=O)C(C)c3ncccc3-c3c2cc(C)nc3F)cc1F (stereo not drawn) [#131, 2-(3-fluoro-5,10-dimethyl-9-oxo-4,8,12-triazatricyclo[9.4.0.0^2.7]pentadeca-1(11),2(7),3,5,12,14-hexaen-8-yl)-N-(3-fluoro-4-methoxy-phenyl)acetamide]
39.8 to 100 | < 15.8 | Cc1cc2c(c(F)n1)-c1cccnc1C(C)C(=O)N2CC(=O)Nc1ccc(C(F)F)cc1 (stereo not drawn) [#132, N-[4-(difluoromethyl)phenyl]-2-(3-fluoro-5,10-dimethyl-9-oxo-4,8,12-triazatricyclo[9.4.0.0^2,7]pentadeca-1(11),2(7),3,5,12,14-hexaen-8-yl)acetamide]
39.8 to 100 | 39.8 to 100 | Cc1cc2c(c(F)n1)-c1cccnc1C(C)C(=O)N2CC(=O)Nc1ccc(C#N)c(F)c1 (stereo not drawn) [#133, N-(4-cyano-3-fluoro-phenyl)-2-(3-fluoro-5,10-dimethyl-9-oxo-4,8,12-triazatricyclo[9.4.0.0^2,7]pentadeca-1(11),2(7),3,5,12,14-hexaen-8-yl)acetamide]
39.8 to 100 | < 15.8 | Cc1cc2c(c(F)n1)-c1ccccc1CC(=O)N2CC(=O)Nc1ccc(C(F)F)cc1 [#134, N-[4-(difluoromethyl)phenyl]-2-(1-fluoro-3-methyl-6-oxo-7H-pyrido[4,3-d][3]benzazepin-5-yl)acetamide]
15.8 to 39.8 | < 15.8 | Cc1cc2c(c(F)n1)-c1cccnc1C(C)C(=O)N2CC(=O)Nc1ccc(C2CC2)c(F)c1 (stereo not drawn) [#135, N-(4-cyclopropyl-3-fluoro-phenyl)-2-(3-fluoro-5,10-dimethyl-9-oxo-4,8,12-triazatricyclo[9.4.0.0^2,7]pentadeca-1(11),2(7),3,5,12,14-hexaen-8-yl)acetamide]
100 to 501 | 15.8 to 39.8 | Cc1cc2c(c(F)n1)-c1cccnc1C(C)C(=O)N2CC(=O)Nc1ccc(OC(F)F)c(F)c1 (stereo not drawn) [#136, N-[4-(difluoromethoxy)-3-fluoro-phenyl]-2-(3-fluoro-5,10-dimethyl-9-oxo-4,8,12-triazatricyclo[9.4.0.0^2,7]pentadeca-1(11),2(7),3,5,12,14-hexaen-8-yl)acetamide]
15.8 to 39.8 | 15.8 to 39.8 | Cc1cc2c(c(F)n1)-c1cccnc1[C@@H](C)C(=O)N2CC(=O)Nc1ccc(C(F)(F)F)c(C)c1 [#137, 2-[(10R)-3-fluoro-5,10-dimethyl-9-oxo-4,8,12-triazatricyclo[9.4.0.0^2,7]pentadeca-1(11),2(7),3,5,12,14-hexaen-8-yl]-N-[3-methyl-4-(trifluoromethyl)phenyl]acetamide]
< 15.8 | < 15.8 | Cc1cc2c(c(F)n1)-c1cccnc1[C@@H](C)C(=O)N2CC(=O)Nc1ccc(I)cc1 [#138, 2-[(10R)-3-fluoro-5,10-dimethyl-9-oxo-4,8,12-triazatricyclo[9.4.0^2,7]pentadeca-1(11),2(7),3,5,12,14-hexaen-8-yl]-N-(4-iodophenyl)acetamide]
15.8 to 39.8 | 15.8 to 39.8 | Cc1cc2c(c(F)n1)-c1cccnc1[C@@H](C)C(=O)N2CC(=O)Nc1ccc(OC(F)F)cc1 [#139, N-[4-(difluoromethoxy)phenyl]-2-[(10R)-3-fluoro-5,10-dimethyl-9-oxo-4,8,12-triazatricyclo[9.4.0.0^2,7]pentadeca-1(11),2(7),3,5,12,14-hexaen-8-yl]acetamide]
15.8 to 39.8 | 15.8 to 39.8 | Cc1cc2c(c(F)n1)-c1cccnc1[C@@H](C)C(=O)N2CC(=O)Nc1ccc(F)c(F)c1 [#140, N-(3,4-difluorophenyl)-2-[(10R)-3-fluoro-5,10-dimethyl-9-oxo-4,8,12-triazatricyclo[9.4.0.0^2,7]pentadeca-1(11),2(7),3,5,12,14-hexaen-8-yl]acetamide]
15.8 to 39.8 | 15.8 to 39.8 | Cc1cc2c(c(F)n1)-c1cccnc1[C@@H](C)C(=O)N2CC(=O)Nc1ccc2c(cnn2C)c1 [#141, 2-[(10R)-3-fluoro-5,10-dimethyl-9-oxo-4,8,12-triazatricyclo[9.4.0.0^2,7]pentadeca-1(11),2(7),3,5,12,14-hexaen-8-yl]-N-(1-methylindazol-5-yl)acetamide]
15.8 to 39.8 | < 15.8 | Cc1cc2c(c(F)n1)-c1cccnc1[C@@H](C)C(=O)N2CC(=O)Nc1ccc(C2CC2)cc1 [#142, N-(4-cyclopropylphenyl)-2-[(10R)-3-fluoro-5,10-dimethyl-9-oxo-4,8,12-triazatricyclo[9.4.0.0^2,7]pentadeca-1(11),2(7),3,5,12,14-hexaen-8-yl]acetamide]
15.8 to 39.8 | < 15.8 | Cc1cc2c(c(F)n1)-c1cccnc1[C@@H](C)C(=O)N2CC(=O)Nc1ccc(C(F)(F)F)c(F)c1 [#143, 2-[(10R)-3-fluoro-5,10-dimethyl-9-oxo-4,8,12-triazatricyclo[9.4.0.0^2,7]pentadeca-1(11),2(7),3,5,12,14-hexaen-8-yl]-N-[3-fluoro-4-(trifluoromethyl)phenyl]acetamide]
15.8 to 39.8 | < 15.8 | Cc1cc2c(c(F)n1)-c1cccnc1[C@@H](C)C(=O)N2CC(=O)Nc1ccc(C2CC2)c(F)c1 [#144, N-(4-cyclopropyl-3-fluoro-phenyl)-2-[(10R)-3-fluoro-5,10-dimethyl-9-oxo-4,8,12-triazatricyclo[9.4.0.0^2,7]pentadeca-1(11),2(7),3,5,12,14-hexaen-8-yl]acetamide]
< 15.8 | < 15.8 | Cc1cc2c(c(F)n1)-c1cccnc1[C@@H](C)C(=O)N2CC(=O)Nc1ccc(Br)cc1 [#145, N-(4-bromophenyl)-2-[(10R)-3-fluoro-5,10-dimethyl-9-oxo-4,8,12-triazatricyclo[9.4.0.0^2,7]pentadeca-1(11),2(7),3,5,12,14-hexaen-8-yl]acetamide]
39.8 to 100 | 100 to 501 | Cc1cc2c(c(F)n1)-c1cccnc1[C@@H](C)C(=O)N2CC(=O)Nc1ccc2c(c1)nnn2C [#147, 2-[(10R)-3-fluoro-5,10-dimethyl-9-oxo-4,8,12-triazatricyclo[9.4.0.0^2,7]pentadeca-1(11),2(7),3,5,12,14-hexaen-8-yl]-N-(1-methylbenzotriazol-5-yl)acetamide]
39.8 to 100 | 15.8 to 39.8 | Cc1cc2c(c(F)n1)-c1cccnc1[C@@H](C)C(=O)N2CC(=O)Nc1ccc2c(cnn2C(F)F)c1 [#148, N-[1-(difluoromethyl)indazol-5-yl]-2-[(10R)-3-fluoro-5,10-dimethyl-9-oxo-4,8,12-triazatricyclo[9.4.0.0^2,7]pentadeca-1(11),2(7),3,5,12,14-hexaen-8-yl]acetamide]
15.8 to 39.8 | < 15.8 | Cc1cc2c(c(F)n1)-c1cccnc1[C@@H](C)C(=O)N2CC(=O)Nc1ccc(C(C)(F)F)cc1 [#149, N-[4-(1,1-difluoroethyl)phenyl]-2-[(10R)-3-fluoro-5,10-dimethyl-9-oxo-4,8,12-triazatricyclo[9.4.0.0^2,7]pentadeca-1(11),2(7),3,5,12,14-hexaen-8-yl]acetamide]
39.8 to 100 | 15.8 to 39.8 | Cc1cc2c(c(F)n1)-c1cccnc1[C@@H](C)C(=O)N2CC(=O)Nc1ccc(Cl)c(Cl)c1 [#150, N-(3,4-dichlorophenyl)-2-[(10R)-3-fluoro-5,10-dimethyl-9-oxo-4,8,12-triazatricyclo[9.4.0.0^2,7]pentadeca-1(11),2(7),3,5,12,14-hexaen-8-yl]acetamide]
< 15.8 | < 15.8 | Cc1cc2c(c(F)n1)-c1cccnc1[C@@H](C)C(=O)N2CC(=O)Nc1ccc(C(F)F)cc1 [#151]
